# Measurements from patent US20250235429A1, “TREATMENT OF DISEASES VIA ADMINISTRATION OF BUNTANETAP AND AN ANTIDIABETIC AGENT” (ANNOVIS BIO, INC., priority 2024, published 2025).
# Key:
# tau = details: unpublished observation, Peter Davies Laboratory; cited from earlier work
# APP/PS1 transgenic mice [1] = assay: 2-day radial arm water maze (RAWM), spatial memory; format: in vivo
# Procedure: (§1) Animals: Heterozygous double transgenic mice expressing both human APP (K670N:M671L) and human PS1 (M146L) (line 6.2) and their wild-type non-transgenic littermates, both males and females, were used for these experiments. They were obtained by a breeding colony maintained at the animal facility of Columbia University. They were genotyped through PCR on tail samples. Animals were injected i.p. from the age of […] for 1 month prior to starting behavioral assessment which lasted for 2 weeks during which treatment continued. Behavioral assessment examined spatial and associative memory. Finally, mice were sacrificed for electrophysiological assessment of synaptic function.
# (§2) Mice were coded to blind investigators with respect to genotype and treatment. Results were expressed with Standard Error of the Mean (SEM). Level of significance was set for p<0.05. Results were analyzed by ANOVA analysis with post-hoc correction with the combination or genotype as main effect. Experiments were designed in a balanced fashion, and mice were trained and tested at each of the different conditions in 3 or 4 separate experiments.
# Mice were i.p. injected with the drug from the age of 8 weeks prior to plaque appearance until behavioral assessment that started at 12 weeks of age and lasted for 2 weeks.
# Spatial memory was studied with the 2-day radial arm water maze (RAWM) test. The task is a hybrid of the Morris Water Maze (MWM) and the radial arm land maze. The motivation for the animals is immersion in water. The mouse needs to swim in 6 alleys (arms) radiating from a central area until it finds a hidden (submerged) platform at the end of one of the arms, based on visual cues placed in the room. In the old RAWM version of the task, the goal arm varies from day to day, requiring 21 days of training in wild-type mice to reach the learning criterion. In the new version of the task, the goal arm is kept constant for all trials, with a different start arm on successive trials, such that the learning criterion will be reached in 2 days. The first day of the protocol was a training day. Mice were trained to identify the platform location by alternating between a visible and a hidden platform in a goal arm. The final 3 trials on day 1 and all 15 trials on day 2 used a hidden escape platform to force mice to use spatial cues to identify the location of the goal arm. To avoid learning limitations imposed by exhausting practice and to avoid fatigue that may result from consecutive trials, spaced practice training was established by running the mice in cohorts of 4 and alternating different cohorts through the 15 training trials over 3 hours testing periods each day. On day 1, a visible platform was laced in a goal location. Mouse 1 of cohort 1 was gently placed in the pool near the perimeter of the wall of the first start arm (specified on a score sheet) and facing the center of the pool. The number of incorrect arm entries (entries in arms with no platform) was counted. If the animal enters the incorrect arm it was gently pulled back to the start arm. Each trial lasted up to 1 min. Failure to select an arm after 15 sec was counted as an error and the mouse was returned to the start arm. After 1 min, if the platform had not been located, the mouse was guided gently through the water by placing a hand behind it to direct it towards the platform. The mouse rested on the platform for 15 sec. After completing the trial, the mouse was removed from the pool, gently towel dried and placed back into its cage under a heat lamp. The goal platform location was different for each mouse. […] After each mouse from cohort 1 completed six alternating trials between visible and hidden platforms, the mice were left to rest under a heating source, and mice from the second cohort were tested in the same way.
# APP and its fragments = details: APP/PS1 transgenic mice; cited from earlier work
# [2] = tested on: fully differentiated Down syndrome nerve cells; details: cited from earlier work
# aSYN = details: neuroblastoma cells; cited from earlier work
# [3] = tested on: hippocampal slices APP/PS1 transgenic mice; assay: Electrophysiological study: long-term potentiation (LTP) in hippocampal slices; format: in vivo
# Procedure: as §1, §2
# Mice were i.p. injected with the drug from the age of 8 weeks prior to plaque appearance until euthanasia for collecting slices at the age of 14-16 weeks. The treatment with Buntanetap was daily, whereas the treatment with dulaglutide was twice a week.
# Electrophysiological analysis was performed on 400 μm hippocampal slices, cut with a tissue chopper and maintained in an interface chamber at 29° C. for 90 min prior to recording. Briefly, CA1 fEPSPs were recorded by placing both the stimulating and the recording electrodes in CA1 stratum radiatum. Basal synaptic transmission was assayed, either by plotting the stimulus voltages against slopes of fEPSP, or by plotting the peak amplitude of the fiber volley against the slope of the fEPSP. For LTP experiments, a 15 min baseline was recorded every min at an intensity that evokes a response ˜35% of the maximum evoked response. LTP was induced using θ-burst stimulation (4 pulses at 100 Hz, with the bursts repeated at 5 Hz and each tetanus including 3 ten-burst trains separated by 15 see). Data was subjected to statistical analyses to determine the effects of combination on inhibiting synaptic dysfunction.
# APP/PS1 transgenic mice [4] = assay: Contextual fear conditioning (FC), associative memory; format: in vivo; details: Buntanetap 1 mg/Kg and/or dulaglutide 0.1 mg/Kg
# Procedure: as §1
# Mice were coded to blind investigators with respect to genotype and treatment. Results were expressed with Standard Error of the Mean (SEM). […] Results were analyzed by ANOVA analysis with post-hoc correction with the combination or genotype as main effect. […]
# The combination effect on associative memory was assessed through fear conditioning (FC). […] Freezing behavior, defined as the absence of movements except for that needed for breathing, was scored using Noldus software. Contextual fear learning, a type of memory for which hippocampal function is indispensable, was evaluated 24 hrs after training by measuring freezing responses for 5 min in the same chamber where the mice have been trained. […]
# [5] = cited from earlier work
# [6] = APP/PS1 mice, Buntanetap 1 mg/Kg and/or dulaglutide 0.1 mg/Kg
compound,measurement,setting,value
"CN1CC[C@]2(C)c3cc(OC(=O)Nc4ccccc4)ccc3N(C)C12 (stereo partly drawn) [Buntanetap, (3aR)-1,3a,8-trimethyl-1,2,3,3a,8,8a-hexahydropyrrolo[2,3-b]indol-5-yl phenylcarbamate]",tau in vitro,tau,lowers
same,% Improvement (RAWM errors),"APP/PS1 transgenic mice [1]; APP/PS1, Buntanetap 1 mg/kg",29.4%
same,Meran Number of Errors (RAWM),"APP/PS1 transgenic mice [1]; APP/PS1, Buntanetap 1 mg/kg",2.8
same,Meran Number of Errors (RAWM),"APP/PS1 transgenic mice [1]; APP/PS1, Buntanetap 10 mg/kg",1.6
same,% Improvement (RAWM errors),"APP/PS1 transgenic mice [1]; APP/PS1, Buntanetap 10 mg/kg, 100% = difference of 1.7 errors",100%
same,impairment of short-term spatial memory measured through the 2-day radial arm water maze (RAWM),APP/PS1 transgenic mice [1]; [6],did not ameliorate
same,levels of APP and all its fragments,APP and its fragments,lowers
same,anterograde and retrograde vesicle transport,[2],Normalized
same,aSYN in vitro,aSYN,lowers
same,% Improvement (Residual Potential),"[3]; APP/PS1, Buntanetap 1 mg/kg",4.8%
same,Residual Potential (mean),"[3]; APP/PS1, Buntanetap 1 mg/kg i.p. daily",141.55
same,Residual Potential (mean),"[3]; APP/PS1, Buntanetap 10 mg/kg i.p. daily",213.56
same,% Improvement (Residual Potential),"[3]; APP/PS1, Buntanetap 10 mg/kg, 100% = wt veh minus APP/PS1 veh",90.5%
same,impairment of synaptic plasticity measured through Long-term potentiation (LTP),[3]; [6],did not ameliorate
same,impairment of associative memory measured through contextual fear conditioning (FC),APP/PS1 transgenic mice [4],did not ameliorate
same,half-life in CSF,[5]; MCI subjects,> 12 h
same,tolerability,[5]; doses up to 4×60 mg daily X 10 days,well tolerated
same,concentration in brain relative to plasma,[5]; in vivo,about 8 times
same,terminal half-life,"[5]; plasma, all doses, biphasic clearance",4.3 to 4.7 h
